The source of these data is patent US20080176263A1, “Materials and Methods for Efficient and Accurate Detection of Analytes” (University of Florida Research Foundation, Inc., priority 2006, published 2008).

The subject of assay [1] is pronase. The note with it: 23° C., 30 min, 100 tM substrate.
Description: The biotinylated fluoreceinated peptide #15 was reconstituted to a concentration of 10 mM in DMSO to serve as a stock solution. […] The 10 mM stock was further diluted to a 1 mM working stock. The final in-reaction concentration of substrate was 100 tM, which was chosen based on visual/fluorescent appearance of the diluted sample.
Three reactions were run, a negative control which contained no protease, a tube which contained 10 tg/mL, and a tube that contained 100 tg/mL.
All three tubes were shaken at room temperature (23° C.) for 30 min, then 30 μL of 500 mM EDTA was added to quench the metalloproteases. Then the reactions were immediately added to 10 kDa cut-off centrifuge filters to physically remove all proteases. This step required two separate filters per sample as the protein content was high enough to “clog” the filter after about half of the volume as filtered. The unfiltered volume was removed from the “clogged” filter and placed into a fresh filter.
Six handee spin columns were prepared in advance by loading 200 tL of the streptavidin agarose suspension (approximately 1:1 bead:buffer) and then centrifuging to remove the buffer. Upon completion of the protease removal step, the filtered volume was placed in a handee spin column loaded with ˜100 tL of a high-capacity streptavidin agarose and the volumes were well mixed by pipetting action. […]
Assay [2] has as its target MMP-3 (Homo sapiens, UniProt P08254). The note with it: at 37° C., pH 7.64; cited from earlier work.
For assay [3], the target named is T1, MMP-1 (Homo sapiens, UniProt P03956).
T1 sequence (P03956 100-469): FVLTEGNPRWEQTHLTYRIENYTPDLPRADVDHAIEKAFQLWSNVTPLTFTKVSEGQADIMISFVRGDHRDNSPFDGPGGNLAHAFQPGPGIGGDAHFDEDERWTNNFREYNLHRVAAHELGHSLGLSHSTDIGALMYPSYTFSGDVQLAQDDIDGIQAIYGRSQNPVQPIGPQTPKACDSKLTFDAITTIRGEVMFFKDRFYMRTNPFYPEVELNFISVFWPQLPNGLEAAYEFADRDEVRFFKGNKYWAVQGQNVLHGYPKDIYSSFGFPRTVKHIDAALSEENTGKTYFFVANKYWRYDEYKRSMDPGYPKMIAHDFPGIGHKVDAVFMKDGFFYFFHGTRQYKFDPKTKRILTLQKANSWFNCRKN
The note with it: at 37° C., pH 7.64; cited from earlier work.

The target in assay [4] is T2, MMP-2 (Homo sapiens, UniProt P08253).
T2 sequence (P08253 110-660): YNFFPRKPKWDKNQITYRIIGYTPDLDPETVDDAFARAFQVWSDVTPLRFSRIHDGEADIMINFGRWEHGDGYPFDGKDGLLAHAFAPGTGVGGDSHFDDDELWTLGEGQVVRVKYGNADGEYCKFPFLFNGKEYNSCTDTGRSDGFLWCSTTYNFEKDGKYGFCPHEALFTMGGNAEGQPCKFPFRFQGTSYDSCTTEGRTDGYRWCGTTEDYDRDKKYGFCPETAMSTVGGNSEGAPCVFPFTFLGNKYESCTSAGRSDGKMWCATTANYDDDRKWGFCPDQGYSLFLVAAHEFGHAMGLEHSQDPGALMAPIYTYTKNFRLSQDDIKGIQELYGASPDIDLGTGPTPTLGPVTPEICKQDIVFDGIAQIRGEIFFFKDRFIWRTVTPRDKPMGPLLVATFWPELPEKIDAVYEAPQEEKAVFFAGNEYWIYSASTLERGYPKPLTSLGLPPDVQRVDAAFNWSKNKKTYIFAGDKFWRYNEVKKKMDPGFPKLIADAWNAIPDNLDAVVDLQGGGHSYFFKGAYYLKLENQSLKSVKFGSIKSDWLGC
To be noted: at 37° C., pH 7.64; cited from earlier work.

In assay [5] the test system is MMP-9. To be noted: at 37° C., pH 7.64; cited from earlier work.
Target sequence in this assay (P14780 94-707, species assumed): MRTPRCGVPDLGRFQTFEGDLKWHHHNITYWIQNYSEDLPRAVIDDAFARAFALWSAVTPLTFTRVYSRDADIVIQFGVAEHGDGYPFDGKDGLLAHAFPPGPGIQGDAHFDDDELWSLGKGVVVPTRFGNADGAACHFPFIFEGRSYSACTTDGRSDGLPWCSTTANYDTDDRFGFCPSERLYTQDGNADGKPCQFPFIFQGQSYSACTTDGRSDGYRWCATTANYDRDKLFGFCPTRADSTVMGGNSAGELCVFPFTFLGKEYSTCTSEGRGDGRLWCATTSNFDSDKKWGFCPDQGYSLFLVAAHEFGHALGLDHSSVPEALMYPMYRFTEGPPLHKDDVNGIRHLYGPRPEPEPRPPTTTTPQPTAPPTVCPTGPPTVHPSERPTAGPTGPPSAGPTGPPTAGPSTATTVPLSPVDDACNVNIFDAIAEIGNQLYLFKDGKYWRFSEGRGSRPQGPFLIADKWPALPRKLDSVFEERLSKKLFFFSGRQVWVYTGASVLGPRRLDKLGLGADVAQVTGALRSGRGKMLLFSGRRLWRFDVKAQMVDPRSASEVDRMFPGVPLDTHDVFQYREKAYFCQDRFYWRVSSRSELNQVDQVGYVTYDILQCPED
The test system of assay [6] is substrate TNO211. Description: Study #1: time-to-detection of protease activity, cleavage of substrate TNO211 by fluorescence. To be noted: protease concentrations ≦100 ng/ml. The assay is classed as biochemical. As for the experimental part: 1. Prepare a suitable standard curve diluted in enzyme buffer. Typically, a maximum of 50 ng/ml final protease concentration in the assay is used. Keep on ice until use.
2. Prepare the substrate solution by diluting the Stock Reconstituted Substrate (in DMSO) to 5.56 uM in the desired Assay Buffer (EDTA-free or EDTA-containing) to produce 90 ul of total EDTA-free or EDTA-containing Assay Buffer per well.
3. Pipette 90 ul substrate solution into each well to be assayed.
4. Take an initial fluorescence reading. To minimize interference due to the fluorescence of endogenous proteins in the samples, we routinely use excitation/emission wavelengths of 355/535 nm, respectively.
5. Pipette 10 ul standards, samples, or Enzyme Buffer (BLANK) into each well of the 96-well fluorescence assay plate.
6. Measure the change in fluorescence continuously until the standard range of interest is sufficiently resolved. Protect from light at RT or 37° C. between measurements.
7. Determine the best-fit curve relating the Change in Fluorescence (AF) vs.
[Protease]. […]
One hundred, 10, 1, and 0.1 ng of pronase, MMP-2, MMP-9, and clostridial collagenase were assayed in a total reaction volume of 100 ul for cleavage of substrate TNO211 as detected by fluorescence. The reactions were monitored for approximately one hour after the addition of the proteases.

Assay [7] has as its system substrate TNO211. Description: Study #3: protease detection sensitivity, visual detection under UV. The class given is biochemical. The note with it: within 10 minutes; from 17% and 28% of pronase activity. The method, then:
To investigate the visual detection limits of pronase, standard curves (1000-0 ng) of the protease were reacted in 50, 100, and 200 uM substrate diluted in the assay buffer. Digital photographs were taken under white light and UV. These observations were compared to those obtained quantitatively using the fluorescence plate reader. The observed detection limits for pronase were used to calculate theoretical detection limits for MMP-2 and MMP-9 (17% and 28% as active as pronase, respectively).

In assay [8] the test system is MMP-9. Description: 5-FAM FRET peptide assay with pure recombinant MMP-9. The class given is biochemical. The note with it: pure MMP-9 activity near the threshold of Ladwig et al. As for the experimental part: Peptide: Two vials of Anaspec, Inc.'s FRET peptide XV (1646.1 g/mol; 100 pg each; Sequence: QXL™520-y-Abu-Pro-Gln-Gly-Leu-Dab(5-FAM)-Ala-Lys-NH (SEQ ID NO:3)) were reconstituted with 60.7 pL of dimethyl sulfoxide (DMSO) to create a stock solution with a concentration of 1.0 mM. A 2× (50 pM) working solution was generated by diluting the 1.0 mM stock in MMP Assay Buffer 20-fold. Each reaction will be 20 pL at final volume requiring at least 0.5 pL of 1.0 mM stock, 9.5 pL of MMP assay buffer and 10 pL of sample per reaction.
Matrix Metalloprotease 9 (aka Gelatinase B): Recombinant active pure MMP-9 from Calbiochem (Cat# PF024; 83 kDa form) in a concentration of 100 ng/mL was used to create 40 pL working solutions at 2× concentration (4× reactions per concentration).
The protease was ˜30 pL of 10 pg/mL MMP-9 (86 kDa form). The substrate was ˜60 μL of 50 μCM 5-FAM/QXL520 FRET Peptide (Fluorescein based TNO211). So the final protease concentration is ˜3.33 μg/mL with ˜33.3 μM.
After the plate-based validation, the leftover substrate and protease were used to test the system in a microcentrifuge tube. A signal visible with a handheld cyan led flashlight was present within 10 minutes. The signal was visible under normal lighting conditions, but the signal is enhanced with the lights out or with the tube shielded.
Target sequence in this assay (P14780 107-707 limits assumed): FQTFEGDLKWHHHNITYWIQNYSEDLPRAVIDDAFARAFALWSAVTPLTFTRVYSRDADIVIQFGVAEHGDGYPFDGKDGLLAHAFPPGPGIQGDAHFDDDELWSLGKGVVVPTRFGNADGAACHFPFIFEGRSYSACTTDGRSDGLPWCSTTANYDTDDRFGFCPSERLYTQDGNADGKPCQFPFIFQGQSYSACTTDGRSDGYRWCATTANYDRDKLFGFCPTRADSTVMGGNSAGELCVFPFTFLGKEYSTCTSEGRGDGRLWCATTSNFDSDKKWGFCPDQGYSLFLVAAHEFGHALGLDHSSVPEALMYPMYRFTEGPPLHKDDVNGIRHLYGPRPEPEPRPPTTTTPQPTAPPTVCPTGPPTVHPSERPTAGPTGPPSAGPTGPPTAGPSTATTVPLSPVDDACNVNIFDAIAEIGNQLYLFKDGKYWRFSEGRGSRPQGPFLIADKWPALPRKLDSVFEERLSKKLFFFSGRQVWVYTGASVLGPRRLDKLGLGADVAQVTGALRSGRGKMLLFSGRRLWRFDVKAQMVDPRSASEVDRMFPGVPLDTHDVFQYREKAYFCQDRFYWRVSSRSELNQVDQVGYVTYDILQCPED

Where “and” joins values, the source holds several entries; their conditions need not be identical. Identical values can stand only once. Numbered stars: 1 amine (or outer) side, 2 acyl side, 3 side chain; on linkers, the order of the positions; unused ones are H or OH. Square brackets hold non-standard residues; d marks the D form. * marks the point of attachment. Dab(5-FAM) = O=C(NCC[C@H](N[*:1])C(=O)[*:2])c1ccc2c(c1)C(=O)OC21c2ccc(O)cc2Oc2cc(O)ccc21; EDANS = O=S(=O)(O)c1cccc2c(NCCN*)cccc12; DABCYL = DABCYL quencher; GABA = NCCCC(=O)O

MMP-3, sequence (P08254 100-477, species assumed): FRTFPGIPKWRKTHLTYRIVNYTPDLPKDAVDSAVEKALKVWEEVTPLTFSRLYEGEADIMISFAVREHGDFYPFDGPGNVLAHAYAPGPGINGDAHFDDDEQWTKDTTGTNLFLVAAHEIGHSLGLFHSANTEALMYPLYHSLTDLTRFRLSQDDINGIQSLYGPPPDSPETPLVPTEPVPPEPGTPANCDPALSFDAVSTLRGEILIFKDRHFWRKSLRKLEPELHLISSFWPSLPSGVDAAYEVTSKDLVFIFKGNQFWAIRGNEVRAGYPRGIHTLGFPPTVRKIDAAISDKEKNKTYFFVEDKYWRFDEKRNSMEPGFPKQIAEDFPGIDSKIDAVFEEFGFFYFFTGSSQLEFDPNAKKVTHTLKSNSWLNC

In the case of “Biotin-aAbu-Pro-Gln-Gly-Leu-Lys(5FAM)-Ala-Lys-NH2 [Peptide #15]”, the cleavage kinetics entry in assay [1] is given as “favorable kinetics”.

In the case of “DABCYL-GABA-Pro-Gln-Gly-Leu-Glu(EDANS)-Ala-Lys-NH2 ({DABCYL-GABA}-PQGLE(EDANS)AK-NH2) [TNO211]”, the kcatKm in assay [2] was 40,000 M^−1s^−1; in assay [3] it was 21,000 M^−1s^−1; in assay [4], 619,000 M^−1s^−1; in assay [5] it was 206,000 M^−1s^−1.

Regarding “MMP-9: Matrix Metalloprotease 9, protease assayed for cleavage of substrate TNO211”, the “activity as % of pronase's observed activity” value in assay [6] is 28±3% and 28%. For the same substance, in assay [7], the “theoretical detection limit calculated from pronase limit” value is on record as about 450 ng.

Regarding “QXL™520-y-Abu-Pro-Gln-Gly-Leu-Dab(5-FAM)-Ala-Lys-NH ({QXL520-GABA}-PQGL[Dab(5-FAM)]AK-NH2) [Anaspec XV]”, the “time to generate a signal” value in assay [8] is at most 10 min.

Regarding collagenase, the “activity as % of pronase's observed activity” value in assay [6] is 2±1%.
